# In patent US12435060B2, “Acylamino bridged heterocyclic compound, and composition and application thereof” (BEIJING SCITECH-MQ PHARMACEUTICALS LIMITED, priority 2019, dated 2025):
# System: HT29 cells
# Assay: Inhibition of cell necrosis (CCK8 method), induced programmed necrosis of HT29 cells
# Format: cell-based
# Details: Homo sapiens, HT-29; rescue from necrosis induced by TNF-α 20 ng/mL, AT-406 1 μM, Z-VAD-FMK 20 μM; 16-20 hours; CCK-8, OD 450 nm
# In short: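 Rescue from programmed necrosis was scored by CCK-8 absorbance at 450 nm after 16-20 h of TNF-α (20 ng/mL), AT-406 (1 μM) and Z-VAD-FMK (20 μM) at 37 °C, 5% CO2. HT29 cells had received compound 30 min earlier across nine 4-fold dilutions (top 25000 nM final). IC50 came from % inhibition relative to uninduced and induced-only wells.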
row,Structure (SMILES),IC50 [µM]
1,"CC(C)(O)CCCOc1ccc(Cl)c(-c2ccnc(NC(=O)c3nnc(CN4CCCC4)[nH]3)c2)c1 [Example 358, N-(4-(2-chloro-5-((4-hydroxy-4-methylpentyl)oxy)phenyl)pyridin-2-yl)-5-(pyrrolidin-1-ylmethyl)-4H-1,2,4-triazole-3-carboxamide]",> 10
2,"COCCCOc1ccc(C)c(-c2ccnc(NC(=O)c3nnc(Cc4ccccc4)s3)c2)c1 [Example 146, 5-benzyl-N-(4-(5-(3-methoxypropoxy)-2-methylphenyl)pyridin-2-yl)-1,3,4-thiodiazol-2-carboxamide]",1 to 10
3,"Cc1ccc(OCCCC(C)(C)O)cc1-c1ccnc(NC(=O)c2nnc(Cc3cc(F)ccc3F)[nH]2)c1 [Example 203, 5-(2,5-difluorobenzyl)-N-(4-(5-((4-hydroxy-4-methylpentyl)oxy)-2-methylphenyl)pyridin-2-yl)-4H-1,2,4-triazole-3-carboxamide]",≤ 0.1
4,"O=C(Nc1cc(-c2cc(OCCCCCO)ccc2C(F)(F)F)ccn1)c1nnc(CC2CCCCC2)[nH]1 [Example 278, 5-(cyclohexylmethyl)-N-(4-(5-((5-hydroxypentyl)oxy)-2-(trifluoromethyl)phenyl)pyridin-2-yl)-4H-1,2,4-triazole-3-carboxamide]",≤ 0.1
5,"Cc1ccc(OCCCC(C)(C)O)cc1-c1ccnc(NC(=O)c2nnc(CC34CC5CC(CC(C5)C3)C4)[nH]2)c1 [Example 180, 5-(adamantan-1-ylmethyl)-N-(4-(5-((4-hydroxy-4-methylpentyl)oxy)-2-methylphenyl)pyridin-2-yl)-4H-1,2,4-triazole-3-carboxamide]",≤ 0.1
6,"CC(C)(O)CCCOc1ccc(Cl)c(-c2ccnc(NC(=O)c3nnc(Cc4cc(F)cc(F)c4F)[nH]3)c2)c1 [Example 352, N-(4-(2-chloro-5-((4-hydroxy-4-methylpentyl)oxy)phenyl)pyridin-2-yl)-5-(2,3,5-trifluorobenzyl)-4H-1,2,4-triazole-3-carboxamide]",0.1 to 1
7,"CC(C)(O)CCCOc1ccc(C(F)(F)F)c(-c2ccnc(NC(=O)c3nnc(Cc4ccccc4)[nH]3)c2)c1 [Example 194, 5-benzyl-N-(4-(5-((4-hydroxy-4-methylpentyl)oxy)-2-(trifluoromethyl)phenyl)pyridin-2-yl)-4H-1,2,4-triazole-3-carboxamide]",≤ 0.1
8,"Cc1cc(F)cc(Cc2nnc(C(=O)Nc3cc(-c4cc(OCCCC(C)(C)O)ccc4Cl)ccn3)[nH]2)c1 [Example 344, N-(4-(2-chloro-5-((4-hydroxy-4-methylpentyl)oxy)phenyl)pyridin-2-yl)-5-(3-fluoro-5-methylbenzyl)-4H-1,2,4-triazole-3-carboxamide]",0.1 to 1
9,"Cc1ccc(C(=O)CC2CCOCC2)cc1-c1ccnc(NC(=O)c2nnc(CC3CCCC3)[nH]2)c1 [Example 486, 5-(cyclopentylmethyl)-N-(4-(2-methyl-5-(2-(tetrahydro-2H-pyran-4-yl)acetyl)phenyl)pyridin-2-yl)-4H-1,2,4-triazole-3-carboxamide]",≤ 0.1
10,"O=C(Nc1cc(-c2cc(OCC3CCOCC3)ccc2Cl)c(F)cn1)c1nnc(CC2CCCCC2)[nH]1 [Example 423, N-(4-(2-chloro-5-((tetrahydro-2H-pyran-4-yl)methoxy)phenyl)-5-fluoropyridin-2-yl)-5-(cyclohexylmethyl)-4H-1,2,4-triazole-3-carboxamide]",≤ 0.1
11,"CC(C)Oc1ccccc1-c1ccnc(NC(=O)c2nnc(Cc3ccccc3)[nH]2)c1 [Example 5, 5-benzyl-N-(4-(2-isopropyloxyphenyl)pyridin-2-yl)-4H-1,2,4-triazole-3-carboxamide]",> 10
12,"CC(C)(O)COc1ccc(C(F)(F)F)c(-c2ccnc(NC(=O)c3nnc(CC4CCCCC4)[nH]3)c2)c1 [Example 267, 5-(cyclohexylmethyl)-N-(4-(5-(2-hydroxyl-2-methylpropoxy)-2-(trifluoromethyl)phenyl)pyridin-2-yl)-4H-1,2,4-triazole-3-carboxamide]",≤ 0.1
13,"COCCOCCOc1ccc(C)c(-c2ccnc(NC(=O)c3nnc(Cc4ccccc4)[nH]3)c2)c1 [Example 85, 5-benzyl-N-(4-(5-(2-(2-methoxyethoxy)ethoxy)-2-methylphenyl)pyridin-2-yl)-4H-1,2,4-triazole-3-carboxamide]",≤ 0.1
14,"Cc1ccc(OCC2CCOCC2)cc1-c1cc(NC(=O)c2nnc(Cc3ccccc3F)[nH]2)ncc1F [Example 496, N-(5-fluoro-4-(2-methyl-5-((tetrahydro-2H-pyran-4-yl)methoxy)phenyl)pyridin-2-yl)-5-(2-fluorobenzyl)-4H-1,2,4-triazole-3-carboxamide]",≤ 0.1
15,"O=C(Nc1cc(-c2cc(OCC3CCOCC3)ccc2Cl)ncn1)c1nnc(Cc2ccccc2)[nH]1 [Example 466, 5-benzyl-N-(6-(2-chloro-5-((tetrahydro-2H-pyran-4-yl)methoxy)phenyl)pyrimidin-4-yl)-4H-1,2,4-triazole-3-carboxamide]",≤ 0.1
16,"CC(C)(O)CCCOc1ccc(Cl)c(-c2cc(NC(=O)c3nnc(CC4CCCCC4)[nH]3)ncc2F)c1 [Example 410, N-(4-(2-chloro-5-((4-hydroxy-4-methylpentyl)oxy)phenyl)-5-fluoropyridin-2-yl)-5-(cyclohexylmethyl)-4H-1,2,4-triazole-3-carboxamide]",≤ 0.1
17,"Cc1ccc(OCCCC(F)(F)F)cc1-c1ccnc(NC(=O)c2nnc(Cc3ccccc3)[nH]2)c1 [Example 138, 5-benzyl-N-(4-(2-methyl-5-(4,4,4-trifluorobutoxy)phenyl)pyridin-2-yl)-4H-1,2,4-triazole-3-carboxamide]",≤ 0.1
18,"C=CCOc1ccc(C)c(-c2ccnc(NC(=O)c3nnc(Cc4ccccc4)[nH]3)c2)c1 [Example 82, N-(4-(5-(allyloxy)-2-methylphenyl)pyridin-2-yl)-5-benzyl-4H-1,2,4-triazole-3-carboxamide]",0.1 to 1
19,"CCn1nc(C)cc1-c1ccnc(NC(=O)c2nnc(Cc3ccccc3)[nH]2)c1 [Example 109, 5-benzyl-N-(4-(1-ethyl-3-methyl-1H-pyrazol-5-yl)pyridin-2-yl)-4H-1,2,4-triazole-3-carboxamide]",1 to 10
20,"O=C(Nc1cc(-c2cc(OCCCCO)ccc2Cl)ccn1)c1nnc(CC2CCCCC2)[nH]1 [Example 374, N-(4-(2-chloro-5-(4-hydroxybutoxy)phenyl)pyridin-2-yl)-5-(cyclohexylmethyl)-4H-1,2,4-triazole-3-carboxamide]",≤ 0.1
21,"Cc1ccc(OCC2CCOCC2)cc1-c1ccnc(NC(=O)c2nnc(CC3CCCCC3)[nH]2)c1 [Example 80, 5-(cyclohexylmethyl)-N-(4-(2-methyl-5-((tetrahydro-2H-pyran-4-yl)methoxy)phenyl)pyridin-2-yl)-4H-1,2,4-triazole-3-carboxamide]",≤ 0.1
22,"COc1cnccc1-c1ccnc(NC(=O)c2nnc(Cc3ccccc3)[nH]2)c1 [Example 25, 5-benzyl-N-(3′-methoxy-[4,4′-bipyridin]-2-yl)-4H-1,2,4-triazole-3-carboxamide]",1 to 10
23,"CCC(O)(CC)CCCOc1ccc(Cl)c(-c2cc(NC(=O)c3nnc(CC4CCCCC4)[nH]3)ncc2Cl)c1 [Example 418, N-(5-chloro-4-(2-chloro-5-((4-ethyl-4-hydroxyhexyl)oxy)phenyl)pyridin-2-yl)-5-(cyclohexylmethyl)-4H-1,2,4-triazole-3-carboxamide]",0.1 to 1
